Here are results for 26 molecules from patent publication US20240158392A1 (Janssen Biotech, Inc., priority 2021, published 2024).

SMILES strings stand for the structures. Some results are limits rather than exact numbers.

Chain of SIK2 (Q9H0K1 whole entry, species assumed): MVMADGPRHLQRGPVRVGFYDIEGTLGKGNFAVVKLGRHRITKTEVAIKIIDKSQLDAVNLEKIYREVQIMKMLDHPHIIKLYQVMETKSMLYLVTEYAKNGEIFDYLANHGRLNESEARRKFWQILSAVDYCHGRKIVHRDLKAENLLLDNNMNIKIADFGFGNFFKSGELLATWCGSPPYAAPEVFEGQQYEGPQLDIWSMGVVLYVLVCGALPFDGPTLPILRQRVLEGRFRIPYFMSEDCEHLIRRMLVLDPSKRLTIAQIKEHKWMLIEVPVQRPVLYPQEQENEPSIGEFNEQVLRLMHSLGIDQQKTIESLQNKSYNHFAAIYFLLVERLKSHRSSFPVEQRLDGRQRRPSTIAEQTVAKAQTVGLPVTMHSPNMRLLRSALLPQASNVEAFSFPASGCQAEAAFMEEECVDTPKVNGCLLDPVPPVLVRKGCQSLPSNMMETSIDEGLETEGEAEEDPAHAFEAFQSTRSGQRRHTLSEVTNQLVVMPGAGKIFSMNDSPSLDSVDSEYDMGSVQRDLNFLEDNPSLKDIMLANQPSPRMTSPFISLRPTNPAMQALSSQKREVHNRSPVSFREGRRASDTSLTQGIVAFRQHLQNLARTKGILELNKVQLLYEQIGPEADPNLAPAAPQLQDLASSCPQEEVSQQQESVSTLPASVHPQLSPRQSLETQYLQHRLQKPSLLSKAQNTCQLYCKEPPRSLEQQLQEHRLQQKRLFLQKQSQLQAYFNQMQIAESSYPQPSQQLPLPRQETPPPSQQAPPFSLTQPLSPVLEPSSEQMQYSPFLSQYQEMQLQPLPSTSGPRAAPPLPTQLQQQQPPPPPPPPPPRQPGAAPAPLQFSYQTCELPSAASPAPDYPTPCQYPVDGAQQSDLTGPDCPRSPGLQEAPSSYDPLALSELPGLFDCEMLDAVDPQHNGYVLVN

One assay has as its target SIK2 (Homo sapiens, UniProt Q9H0K1). In words: SIK2 Enzymatic Assay High Version 2 (High ATP). It is filed as biochemical.
Settings: not given
On the procedure:
All steps were performed at room temperature. Compounds were pre-plated onto an assay plate using an Echo acoustic dispenser (Labcyte, E550 or E555) at 80 nL per well. Enzyme prepared in assay buffer at 6 nM (2× final concentration) was added at 4 μL per well using the Multidrop Combi (Thermo Fisher—used for all additions in this assay) to the assay plate, spun for 1 min at 1000 rpm (Allegra 6KR Beckman Coulter centrifuge), and incubated with compound for 30 minutes. Assay buffer containing 6 mM ATP and 400 μM HDAC5tide (2× of final concentration for each substrate) was added at 4 μL per well to the assay plate and then spun as above and incubated for 2 hours. […] ADP-Glo Max Reagent (prepared and aliquoted as per manufacturer instructions) was then added at 8 μL per well, spun and incubated for 2 hours. ADP-Glo Max Detection (prepared and aliquoted as per manufacturer instructions) was added at 8 μL per well to the assay plate, which was spun and incubated for 1 hour. The plate is then read on the Pherastar (BMG Labtech) using a luminescence read. Gain is set between 2200-2500.
`Cc1cc(-c2ccn3nc(Nc4ncccn4)cc3c2)c(O[C@H]2C[C@H]3COC[C@@H](C2)N3)cn1` [Example 402, 5-[2-methyl-5-[[(1S,5R,7s)-3-oxa-9-azabicyclo[3.3.1]nonan-7-yl]oxy]-4-pyridyl]-N-pyrimidin-2-yl-pyrazolo[1,5-a]pyridin-2-amine]: the IC50 (as a rule, the point on the concentration scale where inhibition reaches its midpoint) was 0.0984 µM.
Same read-out and setting: the same measure for `Cc1cc(-c2ccn3nc(Nc4cc(C(F)(F)F)nn4C)cc3c2)c(O[C@H]2C[C@H]3COC[C@@H](C2)N3)cn1` [Example 403, 5-(5-(((1R,5S,7s)-3-oxa-9-azabicyclo[3.3.1]nonan-7-yl)oxy)-2-methylpyridin-4-yl)-N-(1-methyl-3-(trifluoromethyl)-1H-pyrazol-5-yl)pyrazolo[1,5-a]pyridin-2-amine]: 0.0143 µM; for `Cc1cc(-c2ccn3nc(Nc4cc(C)nc(C)n4)cc3c2)c(O[C@H]2C[C@H]3COC[C@@H](C2)N3)cn1` [Example 382, N-(2,6-dimethylpyrimidin-4-yl)-5-[2-methyl-5-[[(1S,5R,7s)-3-oxa-9-azabicyclo[3.3.1]nonan-7-yl]oxy]-4-pyridyl]pyrazolo[1,5-a]pyridin-2-amine]: less than 0.000847 µM.
On the same count and under the same terms, then `Cc1cc(-c2ccn3nc(Nc4nn(C)cc4F)cc3c2)c(O[C@H]2C[C@H]3COC[C@@H](C2)N3)cn1` [Example 399, N-(4-fluoro-1-methyl-pyrazol-3-yl)-5-[2-methyl-5-[[(1S,5R,7s)-3-oxa-9-azabicyclo[3.3.1]nonan-7-yl]oxy]-4-pyridyl]pyrazolo[1,5-a]pyridin-2-amine], with 0.0442 µM.

Staying with this assay, now noted: enzyme 6 nM, 6 mM ATP and 400 μM HDAC5tide (each 2× final concentration); 30 minutes pre-incubation, 2 hours; ADP-Glo Max luminescence; read-out: SIK2 high ATP IC50 (μM) (Test Example 2).
`Cc1cc(-c2ccn3nc(Nc4cc(C)nc(C)n4)cc3c2)c(OC[C@H]2CC3(CCCC3)CO2)cn1` (single isomer, unassigned) [Example 258, (*R)—N-(2,6-dimethylpyrimidin-4-yl)-5-[2-methyl-5-(8-oxaspiro[4.4]nonan-7-ylmethoxy)-4-pyridyl]pyrazolo[1,5-a]pyridin-2-amine]: the IC50 came to 0.153 µM.
Still for that read-out and setting: then `Cc1cc(-c2ccn3nc(Nc4cc(C)c(=O)n(CC(C)C)n4)cc3c2)c(OCC(C)(C)O)cn1` [Example 282, 6-[[5-[5-(2-hydroxy-2-methyl-propoxy)-2-methyl-4-pyridyl]pyrazolo[1,5-a]pyridin-2-yl]amino]-2-isobutyl-4-methyl-pyridazin-3-one], with 0.00608 µM; and `CNc1nc(C)cc(Nc2cc3cc(-c4cc(C)ncc4OCC(C)(C)O)ccn3n2)n1` [Example 228, 2-methyl-1-[[6-methyl-4-[2-[[6-methyl-2-(methylamino)pyrimidin-4-yl]amino]pyrazolo[1,5-a]pyridin-5-yl]-3-pyridyl]oxy]propan-2-ol], with 0.00167 µM; and `CNC(=O)c1c(OC)cc(Nc2cc3cc(-c4cc(C)ncc4O[C@H]4CC[C@H](O)CC4)ccn3n2)cc1OC` [Example 331, 4-[[5-[5-(4-hydroxycyclohexoxy)-2-methyl-4-pyridyl]pyrazolo[1,5-a]pyridin-2-yl]amino]-2,6-dimethoxy-N-methyl-benzamide], with 0.0366 µM.
For the molecule `Cn1ccc(Nc2cc3cc(-c4cc(C#N)cnc4OC[C@@H]4CNCCO4)ccn3n2)n1` [Example 564, 5-[2-[(1-methylpyrazol-3-yl)amino]pyrazolo[1,5-a]pyridin-5-yl]-6-[[(2S)-morpholin-2-yl]methoxy]pyridine-3-carbonitrile], the IC50 was 0.00339 µM.
Same read-out and setting: the same measure for `Cc1cc(-c2ccn3nc(Nc4cc(C)c(=O)n(C)n4)cc3c2)c(O[C@H]2CC[C@@H](S(C)(=O)=O)CC2)cn1` [Example 305, 2,4-dimethyl-6-((5-(2-methyl-5-(((1s,4s)-4-(methylsulfonyl)cyclohexyl)oxy)pyridin-4-yl)pyrazolo[1,5-a]pyridin-2-yl)amino)pyridazin-3(2H)-one]: 0.00117 µM.
Take `Cc1cc(-c2ccn3nc(Nc4cc(C)nc(C)n4)cc3c2)c(O[C@H]2C[C@H](NS(C)(=O)=O)C2)cn1` [Example 580, N-[3-[[4-[2-[(2,6-dimethylpyrimidin-4-yl)amino]pyrazolo[1,5-a]pyridin-5-yl]-6-methyl-3-pyridyl]oxy]cyclobutyl]methanesulfonamide]: the IC50 is 0.00198 µM.
Same read-out and setting: then `COc1cc(Nc2cc3cc(-c4cc(C)ncc4O[C@H]4CC[C@H](O)CC4)ccn3n2)cc(OC)c1C(=O)NC1CC1` [Example 245, N-cyclopropyl-4-[[5-[5-(4-hydroxycyclohexoxy)-2-methyl-4-pyridyl]pyrazolo[1,5-a]pyridin-2-yl]amino]-2,6-dimethoxy-benzamide], with 0.0239 µM.
On the same count and under the same terms, then `CC#Cc1cc(-c2ccn3nc(Nc4ccn(C)n4)cc3c2)c(O[C@H]2CC[C@H](O)CC2)cn1` [Example 187, trans-4-[[4-[2-[(1-methylpyrazol-3-yl)amino]pyrazolo[1,5-a]pyridin-5-yl]-6-prop-1-ynyl-3-pyridyl]oxy]cyclohexanol], with 0.00407 µM; and `Cc1cc(-c2ccn3nc(Nc4cc(C)nc(C)n4)cc3c2)c(OC[C@](C)(N)C(F)(F)F)cn1` (single isomer, unassigned) [Example 304, (*S)-5-[5-(2-amino-3,3,3-trifluoro-2-methyl-propoxy)-2-methyl-4-pyridyl]-N-(2,6-dimethylpyrimidin-4-yl)pyrazolo[1,5-a]pyridin-2-amine], with 0.0028 µM; and `Cc1cc(-c2ccn3nc(Nc4cc(C)nc(C)n4)cc3c2)c(O[C@H]2CCS(=O)(=O)NC2)cn1` (single isomer, unassigned) [Example 610, (*S)—N-(2,6-dimethylpyrimidin-4-yl)-5-[5-(1,1-dioxothiazinan-4-yl)oxy-2-methyl-4-pyridyl]pyrazolo[1,5-a]pyridin-2-amine], with 0.0829 µM.
Still for that read-out and setting: the same measure for `CC#Cc1cc(-c2ccn3nc(NC(=O)C4CC4)cc3c2)c(O[C@H]2C[C@H](N)C2)cn1` [Example 435, N-(5-(5-((1r,3r)-3-aminocyclobutoxy)-2-(prop-1-yn-1-yl)pyridin-4-yl)pyrazolo[1,5-a]pyridin-2-yl)cyclopropanecarboxamide]: less than 0.000847 µM; for `Cc1cc(Nc2cc3cc(-c4cc(OC(F)F)ncc4OCC(C)(C)C#N)ccn3n2)nc(C)n1` [Example 329, 3-[[6-(difluoromethoxy)-4-[2-[(2,6-dimethylpyrimidin-4-yl)amino]pyrazolo[1,5-a]pyridin-5-yl]-3-pyridyl]oxy]-2,2-dimethyl-propanenitrile]: 0.00358 µM.
For the molecule `Cc1cc(-c2ccn3nc(NC(=O)C4CC4)cc3c2)c(OCC(C)(N)C(F)(F)F)cn1` (single isomer, unassigned) [Example 160, (*S)—N-[5-[5-(2-amino-3,3,3-trifluoro-2-methyl-propoxy)-2-methyl-4-pyridyl]pyrazolo[1,5-a]pyridin-2-yl]cyclopropanecarboxamide], the IC50 turned out to be 0.0444 µM.
On to `Cc1cc(-c2ccc3nc(NC(=O)C4CC4)cn3c2)c(O[C@H]2CC[C@H](O)CC2)cn1` [Example 504, N-[6-[5-(4-hydroxycyclohexoxy)-2-methyl-4-pyridyl]imidazo[1,2-a]pyridin-2-yl]cyclopropanecarboxamide], for which the IC50 was less than 0.000847 µM.
On the same count and under the same terms, then `Cc1cc(-c2ccn3nc(Nc4cc(C)nc(C)n4)cc3c2)c(OC[C@H](O)C2CC2)cn1` [Example 558, (1R)-1-cyclopropyl-2-[[4-[2-[(2,6-dimethylpyrimidin-4-yl)amino]pyrazolo[1,5-a]pyridin-5-yl]-6-methyl-3-pyridyl]oxy]ethanol], with 0.0695 µM; and `Cc1cc(-c2ccn3nc(NC(=O)C4CC4)cc3c2)c(OC[C@@H](N)C(F)(F)F)cn1` [Example 570, N-[5-[5-[(2R)-2-amino-3,3,3-trifluoro-propoxy]-2-methyl-4-pyridyl]pyrazolo[1,5-a]pyridin-2-yl]cyclopropanecarboxamide], with 0.0943 µM.
On the same count and under the same terms, then `C[C@@H](C#N)Oc1cc(-c2ccn3nc(NC(=O)C4CC4)cc3c2)c(OCC(C)(C)C#N)cn1` (single isomer, unassigned) [Example 726, (*S)—N-[5-[2-(1-cyanoethoxy)-5-(2-cyano-2-methyl-propoxy)-4-pyridyl]pyrazolo[1,5-a]pyridin-2-yl]cyclopropanecarboxamide], with 0.00251 µM; and `CC(C)(C#N)COc1cnc(OC(F)F)cc1-c1ccn2nc(Nc3ccnc(N)n3)cc2c1` [Example 705, 3-[[4-[2-[(2-aminopyrimidin-4-yl)amino]pyrazolo[1,5-a]pyridin-5-yl]-6-(difluoromethoxy)-3-pyridyl]oxy]-2,2-dimethyl-propanenitrile], with 0.0306 µM.
On the same count and under the same terms, then `Cc1cc(-c2ccn3nc(Nc4cc(C)nc(C)n4)cc3c2)c(OC[C@H]2CCC3(CCCC3)O2)cn1` (single isomer, unassigned) [Example 231, (*R)—N-(2,6-dimethylpyrimidin-4-yl)-5-[2-methyl-5-(9-oxaspiro[4.4]nonan-8-ylmethoxy)-4-pyridyl]pyrazolo[1,5-a]pyridin-2-amine], with 0.00839 µM.
Regarding `Cc1cc(-c2ccn3nc(NC(=O)C4CC4)cc3c2)c(OC[C@@]23C[C@@H](CO2)N(C)C3)cn1` [Example 237, N-[5-[2-methyl-5-[[(1S,4S)-2-methyl-5-oxa-2-azabicyclo[2.2.1]heptan-4-yl]methoxy]-4-pyridyl]pyrazolo[1,5-a]pyridin-2-yl]cyclopropanecarboxamide], the IC50 stood at 0.0282 µM.
Regarding `COc1cc(Nc2cc3cc(-c4cc(C)ncc4O[C@H]4CC[C@H](O)CC4)ccn3n2)cc(F)c1C(=O)NC1CC1` [Example 649], the IC50 is 0.166 µM.
